Laboratory results taken from PubChem BioAssay (NCI).
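Tested at 5 concentrations; 48 h exposure; 96-well plates; endpoints linearly interpolated, else capped at highest concentration. Here, GI50 denotes the concentration required for 50% inhibition of growth. TGI marks complete inhibition of growth.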

How the values were obtained:
Assay in all cases: DTP human tumour cell line panel, 48 h
[1] = test system: A498 renal
[2] = test system: OVCAR-8 ovarian
[3] = test system: A549 NSCLC
[4] = test system: KM12 colon
[5] = test system: UACC-257 melanoma
[6] = test system: SW-620 colon
[7] = test system: HT29 colon
[8] = test system: RXF 393 renal
[9] = test system: MCF7 breast

CSC(=O)C[C@@]12O[C@@H]([C@@H](C)C3CCC4[C@@H]5C(O)CC6=CC(=O)C=C[C@]6(C)C5CC[C@@]43C)C[C@](C)(O1)C(C)(C)O2 (some centres not stated)
TGI [1]: 31.5 µM
TGI [2]: 37.9 µM
TGI [3]: 32 µM
TGI [4]: 32.9 µM
TGI [5]: 26.9 µM
TGI [6]: 33.2 µM
TGI [7]: 27.6 µM
TGI [8]: 24.4 µM

CC(=O)OC12C(C)=C(C)C(=O)N1c1ccccc1N2C(C)=O (configuration not stated)
TGI [2]: > 100 µM
TGI [3]: > 100 µM
TGI [4]: > 100 µM
TGI [5]: > 100 µM
TGI [6]: > 100 µM
TGI [7]: > 100 µM
TGI [8]: > 100 µM

COC(=O)CCC(=O)Nc1ccc(Cl)cc1C
TGI [1]: > 79 µM
TGI [2]: > 100 µM
TGI [3]: > 100 µM
TGI [4]: > 100 µM
TGI [5]: > 100 µM
TGI [6]: > 100 µM
TGI [7]: > 100 µM
TGI [8]: > 100 µM

CCN(CC)CCN(CC)CC.CCN(CC)CCN(CC)CC.[Cu+2].[Cu+2].[O-][Cl+3]([O-])([O-])[O-].[OH3+].[OH3+]
GI50 [1]: 22.4 µM
TGI [1]: 37.9 µM
GI50 [2]: > 100 µM
TGI [2]: > 100 µM
GI50 [3]: 30.2 µM
TGI [3]: > 100 µM
GI50 [4]: 18.2 µM
TGI [4]: 34.2 µM
GI50 [5]: > 100 µM
TGI [5]: > 100 µM
GI50 [6]: > 100 µM
TGI [6]: > 100 µM
GI50 [7]: 25.6 µM
TGI [7]: 87.9 µM

O=[N+]([O-])c1ccc(-c2csc(N=Nc3c(O)[nH]c4ccccc34)n2)cc1
TGI [2]: 70 µM
TGI [3]: 81.3 µM
TGI [4]: > 100 µM
TGI [5]: > 100 µM
TGI [6]: > 100 µM
TGI [7]: 76.6 µM
TGI [9]: > 100 µM

Nc1nc(=O)n(C2CCC(CO)O2)cc1F (configuration not stated)
TGI [2]: > 100 µM
TGI [3]: > 100 µM
TGI [4]: > 100 µM
TGI [5]: > 100 µM
TGI [6]: > 100 µM
TGI [7]: > 100 µM
TGI [8]: > 100 µM

CC(Oc1ccc2c(-c3ccc(Cl)cc3)cc(=O)oc2c1)C(=O)O (configuration not stated)
TGI [1]: > 100 µM
TGI [2]: > 100 µM
TGI [3]: > 100 µM
TGI [4]: > 100 µM
TGI [5]: > 100 µM
TGI [6]: > 100 µM
TGI [7]: > 100 µM
TGI [8]: > 100 µM

CSC(=NC(=O)c1ccccc1Cl)SCCSC(=NC(=O)c1ccccc1Cl)SC
TGI [1]: > 100 µM
TGI [2]: > 100 µM
TGI [3]: > 100 µM
TGI [4]: > 100 µM
TGI [5]: > 100 µM
TGI [6]: > 100 µM
TGI [7]: > 100 µM
TGI [8]: > 100 µM

CC(=O)OCc1c(O)c2c([nH]c1=O)CCc1ccccc1-2
TGI [2]: 291 µM
TGI [3]: > 350 µM
TGI [4]: 109 µM
TGI [5]: 203 µM
TGI [6]: 111 µM
TGI [7]: 311 µM
TGI [8]: 105 µM

Cc1ccc(/C=C/C(=O)c2ccc(Cl)c(Cl)c2)cc1
TGI [1]: > 100 µM
TGI [2]: > 100 µM
TGI [3]: > 100 µM
TGI [4]: > 100 µM
TGI [5]: > 100 µM
TGI [6]: > 100 µM
TGI [7]: > 100 µM
TGI [8]: > 100 µM

O=S1(=O)c2ccccc2N(O)C2=NCCN21
TGI [1]: > 100 µM
TGI [2]: > 100 µM
TGI [3]: > 100 µM
TGI [4]: > 100 µM
TGI [5]: > 100 µM
TGI [6]: > 100 µM
TGI [7]: > 100 µM
TGI [8]: > 100 µM

O=C1CCCCCCC2=C1C(Sc1ccccc1)CC2 (configuration not stated)
TGI [2]: 54 µM
TGI [3]: > 100 µM
TGI [4]: > 100 µM
TGI [5]: > 100 µM
TGI [6]: > 100 µM
TGI [7]: 83.8 µM
TGI [8]: 48.6 µM

COc1ccc(CC(=O)NCCc2ccc(OC)c(OC)c2OC)cc1
TGI [1]: > 100 µM
TGI [2]: > 100 µM
TGI [3]: > 100 µM
TGI [4]: > 100 µM
TGI [5]: > 100 µM
TGI [6]: > 100 µM
TGI [7]: > 100 µM
TGI [8]: > 100 µM

CCCCCCCCCCCCSC(=S)c1c(C)[nH]n(-c2ccccc2)c1=O
TGI [1]: > 50 µM
TGI [2]: > 50 µM
TGI [3]: > 50 µM
TGI [5]: 29.5 µM
TGI [6]: > 50 µM
TGI [7]: 36.6 µM
TGI [8]: 24.5 µM

CCOC(=O)C12CCCC1(O)N(NC(=O)OC)C(C)=C2C(=O)OC (configuration not stated)
TGI [1]: > 100 µM
TGI [2]: > 100 µM
TGI [3]: > 100 µM
TGI [4]: > 10 µM
TGI [5]: > 100 µM
TGI [6]: > 100 µM
TGI [7]: > 100 µM

O=C(CC1(O)C(=O)Nc2c(Cl)cc(Cl)cc21)c1ccccc1 (configuration not stated)
TGI [1]: > 100 µM
TGI [2]: > 100 µM
TGI [3]: > 100 µM
TGI [5]: > 100 µM
TGI [6]: > 100 µM
TGI [7]: > 100 µM
TGI [8]: > 100 µM

COc1ccc(N2C(=O)C3CC(c4ccc(Br)cc4)c4c([nH]c5ccccc45)C3C2=O)cc1 (configuration not stated)
TGI [1]: 22.3 µM
TGI [2]: 5.96 µM
TGI [3]: 6.96 µM
TGI [4]: > 100 µM
TGI [5]: 36.8 µM
TGI [6]: 18.5 µM
TGI [7]: 44.5 µM

Cc1ccc(NCC2(/N=C/c3ccccc3)OC(CO)C(O)C2O)cc1 (configuration not stated)
TGI [2]: > 100 µM
TGI [3]: > 100 µM
TGI [4]: > 100 µM
TGI [5]: > 100 µM
TGI [6]: > 100 µM
TGI [7]: > 100 µM

COc1ccc(/C=C/c2cc(OC)c(OC(C)=O)c(OC)c2)cc1
TGI [2]: > 100 µM
TGI [3]: > 100 µM
TGI [5]: 66.9 µM
TGI [7]: > 100 µM

Cc1cccc(-c2nnc3s/c(=C\c4ccc(N(C)C)cc4)c(=O)n23)c1
TGI [1]: > 100 µM
TGI [2]: > 100 µM
TGI [3]: > 100 µM
TGI [4]: > 100 µM
TGI [5]: > 100 µM
TGI [6]: > 100 µM
TGI [8]: > 100 µM

CCOC(=O)C1(C(=O)OCC)C(C(C)(C)C)=C(C)c2ccccc21
TGI [2]: 66.1 µM
TGI [3]: > 100 µM
TGI [4]: 25.9 µM
TGI [5]: 44.3 µM
TGI [6]: 28.8 µM
TGI [7]: 23.8 µM
TGI [8]: 26.6 µM
